# How the values were obtained:
# Format in all cases: functional
# HT-29 = assay: Cytotoxicity against human HT29 cells after 72 hrs by sulforhodamine B method; conditions: HT-29, 72 h
# A549 = assay: Cytotoxicity against human A549 cells after 72 hrs by sulforhodamine B method; conditions: A549, 72 h
# MDA-MB-231 = assay: Cytotoxicity against human MDA-MB-231 cells after 72 hrs by sulforhodamine B method; conditions: MDA-MB-231, 72 h
SMILES,GI50 (HT-29),GI50 (A549),GI50 (MDA-MB-231)
CN[C@@H]1C[C@H]2O[C@@](C)([C@@H]1OC)n1c3ccccc3c3c4c(c5c6ccccc6n2c5c31)C(=O)NC4 [STAUROSPORINE],10.9 nM,2.4 nM,7.1 nM
CN[C@@H]1C[C@H]2O[C@@](C)([C@@H]1OC)n1c3ccc(O)c(O)c3c3c4c(c5c6cc(O)ccc6n2c5c31)C(=O)NC4=O,68.1 nM,26.6 nM,28.4 nM
CO[C@@H]1[C@H](N)C[C@H]2O[C@]1(C)n1c3ccc(O)c(O)c3c3c4c(c5c6ccccc6n2c5c31)C(=O)NC4=O,90.3 nM,17.5 nM,32.1 nM

# From ChEMBL document CHEMBL1157400, “Cytotoxic staurosporines from the marine ascidian Cystodytes solitus” (2008)
